Source: the supplement of paper PMC11451515

System: NOMO1
Assay: cell viability relative to DMSO control; higher = less cytotoxic
Conditions: 48 h
Summary of the method: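 Viability values are per-plate percentages of DMSO wells, with background from cell-free wells. Library compounds in DMSO were pin-dosed, in an 11-point threefold series from 47 μM to 0.79 nM, onto NOMO1 or SEM (500 cells/well) or P12-Ichikawa (1000 cells/well) leukemia cells in 1536-well plates (5 μl). Those cells had been adapted for at least four passages in each medium, and CellTiter-Glo One luminescence was read after 48 h at 37°C.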

[1] = HPLM + 10% dialyzed FBS, 0.000781 µM
[2] = HPLM + 10% dialyzed FBS, 0.00234 µM
[3] = HPLM + 10% dialyzed FBS, 0.00702 µM
[4] = HPLM + 10% dialyzed FBS, 0.0211 µM
[5] = HPLM + 10% dialyzed FBS, 0.0632 µM
[6] = HPLM + 10% dialyzed FBS, 0.19 µM
[7] = HPLM + 10% dialyzed FBS, 0.569 µM
[8] = HPLM + 10% dialyzed FBS, 1.71 µM
[9] = HPLM + 10% dialyzed FBS, 5.12 µM
[10] = HPLM + 10% dialyzed FBS, 15.4 µM
[11] = HPLM + 10% dialyzed FBS, 46.1 µM
[12] = RPMI 5 mM glucose + 10% FBS, 0.000781 µM
[13] = RPMI 5 mM glucose + 10% FBS, 0.00234 µM
[14] = RPMI 5 mM glucose + 10% FBS, 0.00702 µM
[15] = RPMI 5 mM glucose + 10% FBS, 0.0211 µM
[16] = RPMI 5 mM glucose + 10% FBS, 0.0632 µM
[17] = RPMI 5 mM glucose + 10% FBS, 0.19 µM
[18] = RPMI 5 mM glucose + 10% FBS, 0.569 µM
[19] = RPMI 5 mM glucose + 10% FBS, 1.71 µM
[20] = RPMI 5 mM glucose + 10% FBS, 5.12 µM
[21] = RPMI 5 mM glucose + 10% FBS, 15.4 µM
[22] = RPMI 5 mM glucose + 10% FBS, 46.1 µM
[23] = RPMI 5 mM glucose + 10% dialyzed FBS, 0.000781 µM
[24] = RPMI 5 mM glucose + 10% dialyzed FBS, 0.00234 µM
[25] = RPMI 5 mM glucose + 10% dialyzed FBS, 0.00702 µM
[26] = RPMI 5 mM glucose + 10% dialyzed FBS, 0.0211 µM
[27] = RPMI 5 mM glucose + 10% dialyzed FBS, 0.0632 µM
[28] = RPMI 5 mM glucose + 10% dialyzed FBS, 0.19 µM
[29] = RPMI 5 mM glucose + 10% dialyzed FBS, 0.569 µM
[30] = RPMI 5 mM glucose + 10% dialyzed FBS, 1.71 µM
[31] = RPMI 5 mM glucose + 10% dialyzed FBS, 5.12 µM
[32] = RPMI 5 mM glucose + 10% dialyzed FBS, 15.4 µM
[33] = RPMI 5 mM glucose + 10% dialyzed FBS, 46.1 µM

Row | Compound | cell viability [1] [%] | cell viability [2] [%] | cell viability [3] [%] | cell viability [4] [%] | cell viability [5] [%] | cell viability [6] [%] | cell viability [7] [%] | cell viability [8] [%] | cell viability [9] [%] | cell viability [10] [%] | cell viability [11] [%] | cell viability [12] [%] | cell viability [13] [%] | cell viability [14] [%] | cell viability [15] [%] | cell viability [16] [%] | cell viability [17] [%] | cell viability [18] [%] | cell viability [19] [%] | cell viability [20] [%] | cell viability [21] [%] | cell viability [22] [%] | cell viability [23] [%] | cell viability [24] [%] | cell viability [25] [%] | cell viability [26] [%] | cell viability [27] [%] | cell viability [28] [%] | cell viability [29] [%] | cell viability [30] [%] | cell viability [31] [%] | cell viability [32] [%] | cell viability [33] [%]
1 | C[C@H](CCC(=O)O)[C@H]1CCC2C3C[C@H](O)[C@@H]4C[C@H](O)CC[C@]4(C)C3CC[C@@]21C (some centres not stated) | 112 | 123 | 139 | 133 | 119 | 121 | 97.6 | 104 | 114 | 123 | 110 | 113 | 106 | 121 | 119 | 119 | 116 | 96.7 | 106 | 113 | 108 | 103 | 102 | 126 | 118 | 108 | 122 | 109 | 107 | 94.7 | 116 | 105 | 110
2 | C[C@@H]1O[C@@H](O[C@H]2C[C@@H](O)[C@]3(CO)[C@H]4[C@H](O)C[C@]5(C)[C@@H](C6=CC(=O)OC6)CC[C@]5(O)[C@@H]4CC[C@]3(O)C2)[C@H](O)[C@H](O)[C@H]1O | 94.8 | 104 | 99 | 81.8 | 32.9 | 14.5 | 9.66 | 8.1 | 8.19 | 8.12 | 6.11 | 93.1 | 95.2 | 109 | 110 | 95.3 | 39.6 | 13.6 | 8.12 | 8.09 | 7.5 | 5.41 | 97.8 | 109 | 103 | 117 | 73.2 | 30 | 11.3 | 6.76 | 6.52 | 6.15 | 5.29
3 | COc1cc2ncn(-c3cc(OCc4ccccc4[S+](C)(=O)[O-])c(C#N)s3)c2cc1OC | 101 | 91 | 105 | 101 | 84 | 108 | 92.8 | 95.8 | 82.7 | 81.2 | 68.9 | 90.9 | 89.9 | 97 | 84.6 | 99.7 | 97 | 103 | 88.8 | 82.1 | 90.4 | 73.8 | 107 | 98.6 | 100 | 100 | 90.8 | 98.7 | 95.3 | 101 | 89.4 | 94.8 | 62
4 | COc1ccc(C(CN(C)C)C2(O)CCCCC2)cc1 (configuration not stated) | 101 | 125 | 124 | 125 | 115 | 127 | 120 | 104 | 124 | 94.5 | 95.3 | 44.9 | 118 | 122 | 118 | 113 | 120 | 104 | 104 | 107 | 97.2 | 109 | 46.1 | 111 | 111 | 117 | 105 | 104 | 96.4 | 109 | 97.9 | 111 | 100
5 | C=C1C(=O)[C@@]23C(CC[C@@H]1[C@H]2O)[C@@]12CO[C@]3(O)[C@@H](O)[C@@H]1C(C)(C)CC[C@@H]2O (some centres not stated) | 119 | 125 | 124 | 127 | 121 | 117 | 125 | 147 | 111 | 82 | 10.6 | 118 | 122 | 115 | 111 | 135 | 130 | 133 | 137 | 129 | 98.4 | 8.83 | 120 | 123 | 127 | 122 | 121 | 127 | 143 | 138 | 124 | 114 | 14
6 | COc1ccc(OC)c(-c2nnc3ccc(-c4ccc(OC)c(O[C@@H]5CCOC5)c4)nn23)c1 | – | – | – | – | – | – | – | – | – | – | – | – | – | – | – | – | – | – | – | – | – | – | 123 | 120 | 140 | 128 | 137 | 140 | 134 | 147 | 137 | 145 | 98.3
7 | C=C1C(=O)OC(CCCCCCCC)C1C(=O)O (configuration not stated) | 107 | 125 | 123 | 135 | 135 | 139 | 130 | 125 | 104 | 136 | 118 | 113 | 114 | 112 | 122 | 131 | 127 | 119 | 132 | 129 | 127 | 124 | 109 | 123 | 113 | 130 | 135 | 136 | 125 | 120 | 121 | 129 | 120
8 | N[C@H]2CN(CC12CC1)c3c(F)cc4c(c3Cl)[N@@](C=C(C4=O)C(=O)O)C5C[C@H]5F (some centres not stated) | 98.5 | 110 | 98.1 | 102 | 98.2 | 89.5 | 83.2 | 84 | 94 | 50.4 | 92.1 | 83.7 | 92 | 89.1 | 78.6 | 90.2 | 83.5 | 72.1 | 82 | 75.2 | 48.4 | 97.1 | 76.7 | 91 | 91.2 | 94.9 | 98.1 | 86.5 | 81.9 | 91.3 | 89.8 | 69 | 77
9 | O=C(CCCCCCC(=O)Nc1ccc([C@H]2O[C@@H](CSc3nc(-c4ccccc4)c(-c4ccccc4)o3)C[C@@H](c3ccc(CO)cc3)O2)cc1)NO | – | – | – | – | – | – | – | – | – | – | – | 120 | 135 | 117 | 124 | 117 | 131 | 127 | 111 | 108 | 12.5 | 5.57 | – | – | – | – | – | – | – | – | – | – | –
10 | O=C(CCCCCCC(=O)Nc1cccnc1)NO | 92.3 | 108 | 105 | 101 | 114 | 91.1 | 108 | 109 | 91.3 | 70.5 | 8.89 | 83.6 | 91.2 | 98 | 84.1 | 84.9 | 91.8 | 100 | 83.6 | 84.3 | 72.8 | 12.3 | 101 | 92.3 | 93.9 | 93.1 | 101 | 102 | 110 | 85.1 | 95.4 | 74.1 | 12.7
11 | O=C(CS(=O)Cc1ccco1)NC/C=C\COc1cc(CN2CCCCC2)ccn1 (configuration not stated) | 85 | 105 | 101 | 102 | 93.3 | 113 | 93.8 | 98.9 | 89 | 94.1 | 92.9 | 89.7 | 87.5 | 97.2 | 95.7 | 87.1 | 98.2 | 87.8 | 89.3 | 94.8 | 93.3 | 92.8 | 90 | 103 | 95 | 108 | 105 | 103 | 108 | 97.4 | 90.9 | 105 | 99.4
12 | O=C(Nc1c[nH]nc1-c1nc2cc(CN3CCOCC3)ccc2[nH]1)NC1CC1 | 91.3 | 111 | 113 | 95.6 | 81.1 | 102 | 104 | 104 | 97.9 | 51 | 3.89 | 85.9 | 103 | 97.1 | 85.5 | 56.3 | 55.3 | 78.7 | 84.9 | 89.4 | 61.2 | 4.23 | 88.3 | 102 | 92.6 | 93.7 | 67.1 | 66.7 | 84 | 83 | 86.7 | 54.5 | 4.36
13 | C[N]1C=C(C2=CC=CC=C12)\C3=C(\C(=O)NC3=O)C4=C[N](C5CCN(CC5)CC6=NC=CC=C6)C7=C4C=CC=C7 | 115 | 115 | 110 | 116 | 133 | 116 | 133 | 131 | 129 | 120 | 140 | 100 | 118 | 110 | 107 | 113 | 110 | 109 | 101 | 105 | 129 | 120 | 102 | 113 | 110 | 113 | 119 | 116 | 118 | 116 | 134 | 138 | 113
14 | Cc1ccc(C(=O)Nc2cccc(C(F)(F)F)c2)cc1-c1ccc2nc(NCCN3CCOCC3)ncc2c1 | 128 | 122 | 111 | 118 | 118 | 126 | 117 | 108 | 50.7 | 29.5 | 10.8 | 115 | 106 | 125 | 113 | 123 | 114 | 116 | 103 | 57.3 | 32.7 | 10.3 | 129 | 116 | 115 | 124 | 118 | 113 | 114 | 102 | 54.2 | 33.4 | 11.6
15 | CCCC(C)(COC(N)=O)COC(=O)NC(C)C (configuration not stated) | 107 | 123 | 125 | 138 | 143 | 131 | 127 | 130 | 123 | 141 | 140 | 116 | 122 | 132 | 127 | 145 | 130 | 127 | 125 | 137 | 150 | 129 | – | – | – | – | – | – | – | – | – | – | –
16 | CCC[S+](=O)([O-])Nc1ccc(F)c(C(=O)c2c[nH]c3ncc(Cl)cc23)c1F | – | – | – | – | – | – | – | – | – | – | – | 112 | 110 | 115 | 117 | 120 | 121 | 114 | 108 | 107 | 62.6 | 43.8 | 116 | 119 | 117 | 100 | 107 | 128 | 119 | 122 | 123 | 62.3 | 42.9
